This passage reports IC50, half-life and inhibition in vivo results from ChEMBL document CHEMBL5537185, “Discovery of the First-in-Class RORγ Covalent Inhibitors for Treatment of Castration-Resistant Prostate Cancer” (J Med Chem, 2024).

Data set [1] addresses T1, Nuclear receptor ROR-gamma (Homo sapiens, UniProt P51449).
T1 sequence (P51449 whole entry): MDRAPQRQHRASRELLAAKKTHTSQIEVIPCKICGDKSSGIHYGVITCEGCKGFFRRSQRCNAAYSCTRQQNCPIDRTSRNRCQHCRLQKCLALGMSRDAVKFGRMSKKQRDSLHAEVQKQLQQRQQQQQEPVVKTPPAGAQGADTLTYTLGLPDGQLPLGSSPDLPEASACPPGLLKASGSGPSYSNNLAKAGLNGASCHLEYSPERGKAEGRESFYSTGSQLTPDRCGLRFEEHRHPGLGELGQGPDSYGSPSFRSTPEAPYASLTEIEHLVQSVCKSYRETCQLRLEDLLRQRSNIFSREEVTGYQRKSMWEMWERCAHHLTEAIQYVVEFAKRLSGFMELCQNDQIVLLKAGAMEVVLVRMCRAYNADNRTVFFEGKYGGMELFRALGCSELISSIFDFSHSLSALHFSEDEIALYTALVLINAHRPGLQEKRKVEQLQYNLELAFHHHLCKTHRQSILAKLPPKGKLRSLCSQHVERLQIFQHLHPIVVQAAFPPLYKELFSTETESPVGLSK
The data set is described as follows: Inhibition of Gal4-fused RORgamma LBD (unknown origin) expressed in HEK293T cells incubated for 48 hrs by luciferase based assay. The class given is cell-based.

The next data set has as its system LNCaP. The data set can be described thus: Antiproliferative activity against human LNCaP cells incubated for 4 days by CCK8 assay. Conditions: 96 h. In general terms: Tetrazolium assays rely on reduction of a dye to a coloured formazan, in cell work by metabolically active cells.
The test system of another data set is LNCaP C4-2B. The data set can be described thus: Antiproliferative activity against human LNCaP C4-2B cells incubated for 4 days by CCK8 assay. The note with it: 96 h.
A short description of data set [2]: Metabolic stability in mouse liver microsomes assessed as half life at 0.1 uM preincubated for 10 mins followed by NADPH addition and measured upto 60 mins by LC-MS/MS analysis. The class given is ADME, Microsome. Conditions: time < 70 min.
Data set [3] concerns CWR22R. The data set can be described thus: Antiproliferative activity against human 22Rv1 cells incubated for 4 days by CCK8 assay. The note with it: 22Rv1, 96 h.
The test system of data set [4] is CWR22R. The data set is described as follows: Antitumor activity against human 22Rv1 cells xenografted in NOD/SCID mouse assessed as tumor growth inhibition at 5 mg/kg, ip administered five times a week for 2 weeks and measured two times per week. The class given is functional. Conditions: 22Rv1, 336 h, read-out: TGI. For orientation: In xenograft studies the graft and the host belong to different species.

Each structure is given as a SMILES string. pIC50: −log10 of the molar value.

One may read the pIC50 as −log10 of the IC50, conventionally taken in molar units. With `C=CC(=O)Nc1ccccc1-c1ccc(NS(=O)(=O)Cc2ccc([N+](=O)[O-])cc2)cc1C`, in data set [1], the pIC50 was 5.18. Same read-out and setting: as for `C=CC(=O)Nc1ccccc1-c1ccc(NC(=O)c2ccc(S(C)(=O)=O)cn2)cc1C`, the figure is 5.26; as for `C=CC(=O)Nc1ccccc1-c1ccc(NC(=O)c2ccc(S(C)(=O)=O)cc2)cc1C`, 5.24; as for `C=CC(=O)Nc1ccccc1-c1ccc(NC(=O)Cc2ccc(S(=O)(=O)CC)cc2)cn1`, 5.21. For `C=CC(=O)Nc1ccccc1-c1ccc(NC(=O)c2cccc(C#N)c2)cc1C`, in data set [1], the negative logarithm of the IC50 (pIC50) is under 4.70. On the same count and under the same terms, as for `C=CC(=O)Nc1ccccc1-c1ccc(NC(=O)Cc2ccc(C#N)cc2)cc1C`, the figure is 5.63; as for `CCS(=O)(=O)c1ccc(CC(=O)Nc2ccc(-c3ccccc3NC(=O)CCl)c(C)c2)cc1`, 5.70. By half-life is commonly meant the time in which the quantity being followed falls by half. With `C=CC(=O)Nc1ccccc1-c1c(Cl)cc(NC(=O)Cc2ccc(S(=O)(=O)CC)cc2)cc1Cl`, the pIC50 in data set [1] is 7.30; with LNCaP, 6.15; in the data set on LNCaP C4-2B, 6.54; in the data set on CWR22R [3] it was 6.04. The half-life at 0.1 µM in data set [2] came out at 2.07 min. Regarding `C=CC(=O)Nc1ccccc1-c1ccc(NC(=O)c2ccc(OC)nc2)cc1C`, the pIC50 in data set [1] was 5.33. The same measure, in the same setting: the result for `C=C(C)C(=O)Nc1ccccc1-c1ccc(NC(=O)Cc2ccc(S(=O)(=O)CC)cc2)cc1C` reads 5.95. `C=CC(=O)Nc1ccccc1-c1ccc(NC(=O)Cc2ccccc2[N+](=O)[O-])cc1C` gave a negative logarithm of the IC50 (pIC50) in data set [1] of 5.52. This pIC50 lies 0.43 log units lower than the previous one. Still for that read-out and setting: as for `C/C=C/C(=O)Nc1ccccc1-c1ccc(NC(=O)Cc2ccc(S(=O)(=O)CC)cc2)cc1C`, the figure is 5.79.

Take `CCS(=O)(=O)c1ccc(CC(=O)Nc2cc(Cl)c(-c3ccccc3OC(F)(F)F)c(Cl)c2)cc1`: the inhibition in vivo at 5 mg/kg in the data set on CWR22R [4] came to 31.1%. Molecule `C=CC(=O)Nc1ccccc1-c1ccc(NC(=O)c2cnc(C)nc2)cc1C` had a pIC50 in data set [1] of 5.59. In the case of `C=CC(=O)Nc1ccccc1-c1ccc(NC(=O)Cc2ccc(S(=O)(=O)CC)cc2)cc1C(F)(F)F`, the pIC50 in data set [1] was 5.66; in the data set on LNCaP it was 5.75; with LNCaP C4-2B, 5.96; in the data set on CWR22R [3], 5.59. For `C=CC(=O)Nc1ccccc1-c1ccc(NC(=O)Cc2cccc(C#N)c2)cc1C`, the pIC50 in data set [1] is 5.69. On the same count and under the same terms, the result for `C=CC(=O)Nc1ccccc1-c1ccc(NC(=O)Cc2ccc(S(C)(=O)=O)cc2)cc1C` reads 5.91. For `C=CC(=O)Nc1ccccc1-c1ccc(NC(=O)Cc2ccc(S(=O)(=O)CC)cc2)cc1C`, the values for the pIC50 in the data set on LNCaP, in the data set on LNCaP C4-2B and with CWR22R [3] were 6.04, 6.00 and 5.65, respectively. In addition, in data set [2], the half-life at 0.1 µM was determined as 10 min. On to `C=CC(=O)Nc1ccccc1-c1ccc(NC(=O)Cc2ccc(S(=O)(=O)CC)cc2)cc1F`, for which the pIC50 in data set [1] is 5.96; with LNCaP, 6.28; in the data set with LNCaP C4-2B it was 6.14; in the data set with CWR22R [3], 5.84. Besides, in data set [2], the half-life at 0.1 µM was determined as 8.17 min. With `CCC(=O)Nc1ccccc1-c1ccc(NC(=O)Cc2ccc(S(=O)(=O)CC)cc2)cc1C`, the pIC50 in data set [1] is 5.53.

`CCC(=O)Nc1ccccc1-c1ccc(NC(=O)Cc2ccc(S(=O)(=O)CC)cc2)cc1Cl`: the pIC50 in the data set with LNCaP, in the data set with LNCaP C4-2B and in the data set with CWR22R [3] was under 5.00 in each case. Take `C=CC(=O)Nc1ccccc1-c1ccc(NC(=O)Cc2ccc(S(=O)(=O)CC)cc2)cc1`: the pIC50 in data set [1] is 5.39.
